Data taken from patent US6828348B2, “L-ascorbic acid-2-o-maleic acid-a-tocopherol diester 1-propanol adduct and process for producing the same” (Senju Pharmaceutical Co., Ltd., priority 2002, dated 2004).
Where two headings read alike, the source gives them in different places.

Experiments:
[1] = 4 weeks, liquid chromatography
Method: The experimental conditions are as follows:
Detector: Ultraviolet absorptiometer (wave length: 220 nm)
Column: A stainless steel tube of 6 mm ID and 15 cm length being packed with octadecylated silica gel of […] in particle size designed for use in liquid chromatograph.
Mobile phase: As prepared by dissolving 0.4 g of crystalline sodium dihydrogenphosphate and 0.3 g of sodium chloride in 50 ml of water, and adding 500 ml of methanol and 450 ml of acetonitrile, followed by addition of phosphoric acid to adjust to pH 4.0.
Flow rate: As regulated so that the retention time may be about 12 min.

[2] = biological target: T1, elastase originated from human white blood cells (Homo sapiens, UniProt P08246); experiment: Elastase inhibitory activity (fluorogenic synthetic substrate); type: biochemical
T1 construct: elastase originated from human white blood cells; from tissue; host or cells: human white blood cells
T1 sequence (P08246 30-247 limits assumed): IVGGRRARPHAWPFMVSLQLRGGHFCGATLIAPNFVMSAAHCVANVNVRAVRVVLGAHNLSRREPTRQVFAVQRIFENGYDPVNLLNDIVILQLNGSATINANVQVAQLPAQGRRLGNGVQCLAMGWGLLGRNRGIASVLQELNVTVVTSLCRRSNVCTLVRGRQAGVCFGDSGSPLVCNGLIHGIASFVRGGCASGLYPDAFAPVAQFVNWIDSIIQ
Excerpt: are the reversibly extensible, highly elastic protein that is principal constituent of elastic fibers to maintain the extensibility and elasticity of the skin. […] are degraded and synthesized in the sustainable manner, thus acting to maintain the extensibility and elasticity of the skin, but may lose their extensibility and elasticity, when the rate of their degradation by elastase owing to aging, etc. exceeds the rate of their synthesis. Accordingly, inhibition of the elastase enables the skin to maintain its extensibility and elasticity. Such being the case, the Compound of the present invention is tested for its elastase inhibitory activity in the following manner: […] Testing method […]

| Molecule | Residual ratio ([1]; storage at 4° C.) | Residual ratio ([1]; storage at 40° C.) | Residual ratio ([1]; storage at 50° C.) | Elastase inhibitory activity (in words) ([2]; 0.01 to 1 mM, Table 2) | Ratio of elastase inhibition ([2]; test specimen 0.01 mM) | Ratio of elastase inhibition ([2]; test specimen 0.1 mM) | Ratio of elastase inhibition ([2]; test specimen 1 mM) |
| --- | --- | --- | --- | --- | --- | --- | --- |
| CCO.Cc1c(C)c2c(c(C)c1OC(=O)/C=C\C(=O)OC1=C(O)[C@@H]([C@@H](O)CO)OC1=O)CCC(C)(CCCC(C)CCCC(C)CCCC(C)C)O2 (stereo partly drawn) [Reference Example 1, L-Ascorbic acid-2-O-maleic acid-α-tocopherol diester.ethanol adduct] | 99.7% | 90.9% | 81.7% |  |  |  |  |
| L-Ascorbic acid-2-O-maleic acid-α-tocopherol diester.1-propanol adduct [Example 1] |  |  |  | remarkable elastase inhibitory activity | 4 | 19 | 71 |
